Laboratory results as given in patent US20220143222A1, “SUBCUTANEOUS AND INTRAMUSCULAR ADMINISTRATION OF PYRAZINE COMPOUNDS” (MediBeacon Inc., priority 2020, published 2022).

Assay: MB-102 pig plasma concentration after intramuscular dosing
Format: in vivo
Conditions: pig 09801, IM, 3.2 mpk
Source text: Juvenile Yorkshire pigs weighing approximately 25 kg were anesthetized, their body temperature stabilized, and an IV port surgically placed. A region approximately half-way along the line between the hip and knee joint was selected as the injection site and prepared by cleaning the skin and removing any exposed hair by shaving the selected area at least twice. Similarly, the site where two Quantum Leap fluorescent sensors (disclosed in U.S. Pat. No. 10,548,521) were to be positioned (chest) was prepared by washing and shaving. After the skin was dry the sensors were attached with commercially available skin adhesive and background skin auto-fluorescence measurements were recorded. After about 20 minutes of background fluorescence collection the subject animal was dosed either intravenously (animal 48019) or subcutaneously (animals 52771, 53701 09802, or 1539) or intramuscularly (09801) with PBS-1× formulated MB-102 at 3.2 mg/kg. Injection of the appropriate volume took place over about a minute. […] At this point glomerular elimination of MB-102 by the kidneys led to a decrease of fluorescence signal over time. Blood samples (1.5 mL) were taken immediately prior to the introduction of MB-102 (0 minutes) and at 15 minute intervals throughout the procedure. Blood was collected in BD vacutainer K2EDTA tubes, spun to plasma and stored at −80° C. until analyzed. Subsequently, the processed plasma samples were thawed, diluted with PBS-1× and analyzed by HPLC or UPLC and the concentration of MB-102 determined using standard analytical techniques. Further details for each animal are provided in the examples that follow.
Experimental animal Yorkshire pig, 09801, was subject to Intramuscular (IM) administration of MB-102 using substantially the same procedure as Example 8, but substituting a 2 mL syringe equipped with a single 13 mm×27 g needle. […] Blood sampling and processing was as described in Example 8 and the results (Table 1) are plotted in FIG. 6.

## Nc1nc(C(=O)N[C@H](CO)C(=O)O)c(N)nc1C(=O)N[C@H](CO)C(=O)O [MB-102, 3,6-diamino-2,5-bis{N-[(1R)-1-carboxy-2-hydroxyethyl]carbamoyl}pyrazine]
Yorkshire, plasma, intramuscular, 3.2 mg/kg, 15 min, read-out: MB-102 Pig Plasma Conc.
  concentration at 15 min: 10000 ng/mL
Yorkshire, plasma, intramuscular, 3.2 mg/kg, 30 min, read-out: MB-102 Pig Plasma Conc.
  concentration at 30 min: 8130 ng/mL
Yorkshire, plasma, intramuscular, 3.2 mg/kg, 45 min, read-out: MB-102 Pig Plasma Conc.
  concentration at 45 min: 6240 ng/mL
Yorkshire, plasma, intramuscular, 3.2 mg/kg, 60 min, read-out: MB-102 Pig Plasma Conc.
  concentration at 60 min: 5030 ng/mL
Yorkshire, plasma, intramuscular, 3.2 mg/kg, 75 min, read-out: MB-102 Pig Plasma Conc.
  concentration at 75 min: 3920 ng/mL
Yorkshire, plasma, intramuscular, 3.2 mg/kg, 90 min, read-out: MB-102 Pig Plasma Conc.
  concentration at 90 min: 3370 ng/mL
Yorkshire, plasma, intramuscular, 3.2 mg/kg, 105 min, read-out: MB-102 Pig Plasma Conc.
  concentration at 105 min: 2720 ng/mL
Yorkshire, plasma, intramuscular, 3.2 mg/kg, 120 min, read-out: MB-102 Pig Plasma Conc.
  concentration at 120 min: 2130 ng/mL
Yorkshire, plasma, intramuscular, 3.2 mg/kg, 135 min, read-out: MB-102 Pig Plasma Conc.
  concentration at 135 min: 1800 ng/mL
Yorkshire, plasma, intramuscular, 3.2 mg/kg, 150 min, read-out: MB-102 Pig Plasma Conc.
  concentration at 150 min: 1510 ng/mL
Yorkshire, plasma, intramuscular, 3.2 mg/kg, 165 min, read-out: MB-102 Pig Plasma Conc.
  concentration at 165 min: 1340 ng/mL
Yorkshire, plasma, intramuscular, 3.2 mg/kg, 180 min, read-out: MB-102 Pig Plasma Conc.
  concentration at 180 min: 1110 ng/mL
Yorkshire, plasma, intramuscular, 3.2 mg/kg, 195 min, read-out: MB-102 Pig Plasma Conc.
  concentration at 195 min: 946 ng/mL
Yorkshire, plasma, intramuscular, 3.2 mg/kg, 210 min, read-out: MB-102 Pig Plasma Conc.
  concentration at 210 min: 841 ng/mL
Yorkshire, plasma, intramuscular, 3.2 mg/kg, 225 min, read-out: MB-102 Pig Plasma Conc.
  concentration at 225 min: 686 ng/mL
Yorkshire, plasma, intramuscular, 3.2 mg/kg, 240 min, read-out: MB-102 Pig Plasma Conc.
  concentration at 240 min: 578 ng/mL
Yorkshire, plasma, intramuscular, 3.2 mg/kg, 255 min, read-out: MB-102 Pig Plasma Conc.
  concentration at 255 min: 520 ng/mL
Yorkshire, plasma, intramuscular, 3.2 mg/kg, 270 min, read-out: MB-102 Pig Plasma Conc.
  concentration at 270 min: 434 ng/mL
Yorkshire, plasma, intramuscular, 3.2 mg/kg, 285 min, read-out: MB-102 Pig Plasma Conc.
  concentration at 285 min: 373 ng/mL
Yorkshire, plasma, intramuscular, 3.2 mg/kg, 300 min, read-out: MB-102 Pig Plasma Conc.
  concentration at 300 min: 333 ng/mL
Yorkshire, plasma, intramuscular, 3.2 mg/kg, 315 min, read-out: MB-102 Pig Plasma Conc.
  concentration at 315 min: 298 ng/mL
Yorkshire, plasma, intramuscular, 3.2 mg/kg, 330 min, read-out: MB-102 Pig Plasma Conc.
  concentration at 330 min: 261 ng/mL
Yorkshire, plasma, intramuscular, 3.2 mg/kg, 345 min, read-out: MB-102 Pig Plasma Conc.
  concentration at 345 min: 222 ng/mL
Yorkshire, plasma, intramuscular, 3.2 mg/kg, 360 min, read-out: MB-102 Pig Plasma Conc.
  concentration at 360 min: 203 ng/mL
15-360 min
  SUM (plasma conc. over time): 794,162 ng/mL*min
